# Measured values from US8580780B2, “6 substituted 2, 3,4,5 tetrahydro-1H-benzo[d]azepines as 5-HT2C receptor agonist” (Eli Lilly and Company, priority 2004, dated 2013).
# What was measured:
# [1] = rat, in vivo; cited from earlier work
# Marble burying assay = assay type: in vivo, male NIH Swiss mice; conditions: mice, 30 min session, with rotorod check
# Text: Marble burying in mice has been used to model anxiety disorders including obsessive-compulsive disorders (OCD) due to ethological study of the behavior (e.g. Gyertyan I. “Analysis of the marble burying response: Marbles serve to measure digging rather than evoke burying”, Behavioural Pharmacology 6: 24-31, (1995)) and due to the pharmacological effects of clinical standards (c.f., Njung'E K. Handley S L. “Evaluation of marble-burying behavior as a model of anxiety”, Pharmacology, Biochemistry & Behavior. 38: 63-67, (1991)); Borsini F., Podhorna J., and Marazziti, D. “Do animal models of anxiety predict anxiolytic effects of antidepressants?”, Psychopharmacology 163: 121-141, (2002)).
# House experimentally-naïve male, NIH Swiss mice (Harlan Sprague-Dawley, Indianapolis, Ind.) weighing between 28-35g in groups of 12 for at least three days prior to testing in a vivarium with 12 h light and dark cycles. Conduct experiments during the light cycle in a dimly lit experimental testing room. Dose mice with vehicle or test compound and, after a specified pretreatment interval (generally 30 min.), place each mouse individually on a rotorod (Ugo Basile 7650) operating at a speed of 6 revolutions/min. and observe for falling. […]
# Clinically effective standard compounds suppress marble burying at doses that are devoid of motor-impairing effects as measured on the rotorod. […]
# Nestlet shredding = assay type: in vivo, male NIH Swiss mice; conditions: mice, 30 min
# Text: Mice naturally will construct nests of material available in their living environment. Since this behavior is obsessive in nature, it has been used to model OCD (Xia Li, Denise Morrow and Jeffrey M. Witkin, “Decreases in nestlet shredding of mice by serotonin uptake inhibitors: comparison with marble burying”, Psychopharmacology, submitted Jul. 14, 2003). House experimentally-naïve male, NIH Swiss mice (Harlan Sprague-Dawley, Indianapolis, Ind.) weighing between 28-35g in groups of 12 for at least three days prior to testing in a vivarium with a 12 h light/dark cycle. Conduct experiments during the light cycle in an experimental room with normal overhead fluorescent lighting. Dose mice with vehicle or test compound and after a specified pretreatment interval (generally 30 min.), place the mice individually in a 17×28×12 cm high plastic tub with about 5 mm sawdust shavings on the floor along with a pre-weighed multi-ply gauze pad (51 mm square). After 30 min., weigh the remainder of the game pad not removed by the mouse. Determine the weight of the gauze used for nestlet construction by subtraction. Compare the results for test compound treated mice to the results for vehicle control treated mice with Dunnett's test.
# Clinically effective OCD treatment standard compounds suppress nestlet shredding at doses that are devoid of motor-impairing effects as measured by the rotorod test. […]
# [2] = Schedule-induced polydipsia; assay type: in vivo, Wistar rats
# Text: Food-deprived rats exposed to intermittent presentations of food will drink amounts of water that are far in excess of their normal daily intake and in excess of their intake when given all of their food at one time (Falk J L. “Production of polydipsia in normal rats by an intermittent food schedule”, Science 133: 195-196, (1961)). This excessive behavior is persistent and has been used to model OCD.
# Maintain Wistar rats on a food restricted diet (to maintain 85% free feeding weight), but with free access to water. Train the rats in a behavioral testing chamber to press a lever to receive a food pellet under a fixed interval schedule, such that the rats are rewarded with a 45 mg food pellet the first time they press a lever after a 120 second interval has elapsed. The fixed interval is then reset to 120 seconds and the process repeated. Thus, during a 90 min. test session, the rats can earn a maximum of 45 pellets. The behavioral chamber is also equipped with a water bottle that is weighed before and after the session to determine the amount of water consumed.
# Administer test compounds on Tuesdays and Fridays. […] Compare the rates of lever pressing and water consumption for each animal's performance during sessions after test compound treatment with that animal's performance during control sessions, expressed as a percent of the control rate. […]
# [3] = mouse, in vivo; cited from earlier work
structure (smiles),measurement,setting,value
Clc1ccc2c(c1SCc1ccccn1)CCNCC2.O=C(O)CCC(=O)O,melting point,,159 to 160 °C
CN(C)CCCN1c2ccccc2CCc2ccc(Cl)cc21 [chlomipramine],schedule-induced polydipsia (clinically effective OCD standards),[1],"suppress schedule-induced polydipsia without producing notable changes in motor patterns, food intake, or behavior the following day"
CN(C)CCCN1c2ccccc2Sc2ccc(Cl)cc21 [chlorpromazine],marble burying behavior,Marble burying assay,decrease marble burying only at doses that also disrupt rotorod performance
C[C@H](N)Cc1ccccc1 [d-amphetamine],nestlet shredding,Nestlet shredding,decreases nestlet shredding only at doses that produce motoric side effects
same,Effect on polydipsia with co-administration of 5-HT2C antagonist,"[2]; rat, in vivo",not prevented by the 5HT2C receptor antagonist
same,schedule-induced polydipsia (excessive drinking),"[2]; rats, 90 min session",decreases excessive drinking only at behaviorally stimulating doses
CNCCC(Oc1ccc(C(F)(F)F)cc1)c1ccccc1 (centres unmarked) [fluoxetine],"marble burying (clinical standards, literature)",[3],decrease burying
same,schedule-induced polydipsia (clinically effective OCD standards),[1],"suppress schedule-induced polydipsia without producing notable changes in motor patterns, food intake, or behavior the following day"
